# PMC7394244 (Journal of medicinal chemistry, 2020)
# Several values for one entry are separate records, joined by “and”; a condition that tells them apart may be missing. Equal entries are not always repeated. Where two headings read alike, the source gives them in different places.
# Assays:
# [1] = In vitro metabolism, mouse liver microsomes
# R1BC1A = experiment: microbe, parasite or virus in culture; conditions: Plasmodium falciparum, read-out: EC50 R1BC1A
# [2] = cited from earlier work
# [3] = mouse liver microsomes; cited from earlier work
# [4] = cited from earlier work; remark: listed apart in the source
# P. falciparum Dd2 = conditions: read-out: EC50 Dd2 (parental); cited from earlier work
# [5] = mouse plasma; cited from earlier work
# [6] = rat liver microsomes; cited from earlier work
# [7] = cited from earlier work; remark: listed apart in the source
# [8] = rat plasma; cited from earlier work
# R10C1B = experiment: microbe, parasite or virus in culture; conditions: Plasmodium falciparum, read-out: EC50 R10C1B
# [9] = human liver microsomes; cited from earlier work
# [10] = cited from earlier work; remark: listed apart in the source
# R2B = experiment: microbe, parasite or virus in culture; conditions: Plasmodium falciparum, read-out: EC50 R2B
# [11] = human plasma; cited from earlier work
# Pf3D7 cells = experiment: P. falciparum 3D7 growth inhibition; type: cell-based
# PfDHODH = target: T1, PfDHODH (Plasmodium falciparum, UniProt Q08210); experiment: biochemical; design: species or system P. falciparum
# T1 sequence (Q08210 24-569): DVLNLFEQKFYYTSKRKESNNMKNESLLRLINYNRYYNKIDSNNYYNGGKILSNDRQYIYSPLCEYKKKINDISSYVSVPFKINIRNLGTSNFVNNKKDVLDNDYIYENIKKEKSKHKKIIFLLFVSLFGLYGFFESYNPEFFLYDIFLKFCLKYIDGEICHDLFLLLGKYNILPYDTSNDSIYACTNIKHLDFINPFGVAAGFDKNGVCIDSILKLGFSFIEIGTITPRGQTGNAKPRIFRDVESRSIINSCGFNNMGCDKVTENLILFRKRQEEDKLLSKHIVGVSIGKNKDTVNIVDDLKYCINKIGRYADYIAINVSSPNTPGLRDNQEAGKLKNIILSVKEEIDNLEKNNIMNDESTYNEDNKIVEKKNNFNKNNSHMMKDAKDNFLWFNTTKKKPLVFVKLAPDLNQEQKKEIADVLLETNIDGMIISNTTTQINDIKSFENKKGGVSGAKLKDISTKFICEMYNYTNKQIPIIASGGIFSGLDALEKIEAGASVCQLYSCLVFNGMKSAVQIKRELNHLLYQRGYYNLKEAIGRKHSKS
# hERG = hERG (Homo sapiens, UniProt Q12809); experiment: hERG IonWorks patch clamp electrophysiology; type: cell-based
# hERG, sequence (Q12809 whole entry): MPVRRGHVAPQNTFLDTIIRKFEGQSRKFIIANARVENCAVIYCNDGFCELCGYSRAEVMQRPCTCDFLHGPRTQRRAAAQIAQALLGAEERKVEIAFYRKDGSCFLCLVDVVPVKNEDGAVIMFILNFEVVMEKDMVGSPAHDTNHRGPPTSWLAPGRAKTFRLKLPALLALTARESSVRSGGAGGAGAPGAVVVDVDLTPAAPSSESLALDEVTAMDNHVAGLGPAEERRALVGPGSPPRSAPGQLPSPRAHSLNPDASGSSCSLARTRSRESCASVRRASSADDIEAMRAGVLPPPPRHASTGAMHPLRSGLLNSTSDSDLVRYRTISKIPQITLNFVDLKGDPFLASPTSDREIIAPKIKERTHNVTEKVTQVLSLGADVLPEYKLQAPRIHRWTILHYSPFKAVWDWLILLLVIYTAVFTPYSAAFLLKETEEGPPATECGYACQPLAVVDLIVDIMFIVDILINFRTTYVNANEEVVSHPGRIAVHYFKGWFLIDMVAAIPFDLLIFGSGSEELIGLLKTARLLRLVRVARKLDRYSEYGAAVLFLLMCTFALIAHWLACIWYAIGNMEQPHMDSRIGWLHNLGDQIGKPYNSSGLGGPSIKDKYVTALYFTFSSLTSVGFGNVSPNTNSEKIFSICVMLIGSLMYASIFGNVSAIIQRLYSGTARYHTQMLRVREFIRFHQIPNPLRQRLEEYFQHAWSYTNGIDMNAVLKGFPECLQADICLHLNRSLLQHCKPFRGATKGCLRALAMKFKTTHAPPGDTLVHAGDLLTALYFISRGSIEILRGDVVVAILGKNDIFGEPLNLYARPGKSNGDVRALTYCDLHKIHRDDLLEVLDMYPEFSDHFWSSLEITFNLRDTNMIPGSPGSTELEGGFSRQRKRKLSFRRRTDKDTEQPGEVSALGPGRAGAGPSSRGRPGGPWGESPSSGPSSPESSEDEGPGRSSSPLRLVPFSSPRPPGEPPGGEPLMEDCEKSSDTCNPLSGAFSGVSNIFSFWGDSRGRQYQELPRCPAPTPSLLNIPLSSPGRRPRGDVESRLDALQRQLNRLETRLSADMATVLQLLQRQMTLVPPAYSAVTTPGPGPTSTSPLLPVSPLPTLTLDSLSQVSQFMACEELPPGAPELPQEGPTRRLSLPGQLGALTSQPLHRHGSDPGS
# Plasma protein binding [12] = type: in vitro ADME; conditions: mouse plasma
# Microsome binding = type: in vitro ADME, human
# KV1.5 K+ = KV1.5 K+ (Homo sapiens, UniProt P22460); experiment: Potassium channel IonWorks patch clamp electrophysiology; type: cell-based
# KV1.5 K+, sequence (P22460 whole entry): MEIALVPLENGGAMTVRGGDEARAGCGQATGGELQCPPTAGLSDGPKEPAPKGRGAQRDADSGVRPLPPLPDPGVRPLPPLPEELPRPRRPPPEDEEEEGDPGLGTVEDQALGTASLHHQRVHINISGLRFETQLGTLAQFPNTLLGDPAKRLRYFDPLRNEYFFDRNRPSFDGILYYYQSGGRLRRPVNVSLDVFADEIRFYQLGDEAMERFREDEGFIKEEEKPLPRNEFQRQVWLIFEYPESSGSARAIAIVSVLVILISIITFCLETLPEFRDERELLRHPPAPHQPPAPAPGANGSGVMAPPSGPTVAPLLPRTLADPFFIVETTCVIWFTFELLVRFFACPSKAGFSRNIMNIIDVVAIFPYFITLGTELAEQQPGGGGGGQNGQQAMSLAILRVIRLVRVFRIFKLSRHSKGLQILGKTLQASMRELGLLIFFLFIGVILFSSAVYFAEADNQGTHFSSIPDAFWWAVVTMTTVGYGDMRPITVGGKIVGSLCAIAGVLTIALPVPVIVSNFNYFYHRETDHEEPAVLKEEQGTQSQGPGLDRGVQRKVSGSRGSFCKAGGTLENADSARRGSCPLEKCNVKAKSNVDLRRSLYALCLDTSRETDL
# Albumax medium binding = type: in vitro ADME
# Plasma protein binding [13] = type: in vitro ADME; conditions: rat plasma
# Plasma protein binding [14] = type: in vitro ADME; conditions: human plasma
# in vivo = conditions: male, Swiss outbred, mouse, plasma, iv
# [15] = Blood exposure in P. falciparum-infected SCID mice; type: in vivo; conditions: NOD-scidIL2Rγnull, mouse, whole blood, po
# [16] = Plasmodium falciparum, read-out: EC50 Pf3D7 cells
# [17] = Plasmodium falciparum, read-out: potency on Pf3D7 parasites
smiles,measurement,setting,value
Cc1cc(Nc2ccc(S(F)(F)(F)(F)F)cc2)n2nc(C(C)(F)F)nc2n1 [Compound 1],microsomal CLint at 1 μM,[1],8 µL/min/mg
same,EC50,R1BC1A,80 nM
same,Albumax binding,[2],83.1 % bound
same,M CLint,[3],<7 / <7 / <7 μL/min/mg
same,Solubility FeSSIF (pH 5.8),[4],27.6 μg/mL
same,EC50,P. falciparum Dd2,4.6 nM
same,M plasma protein binding,[5],99.7 % bound
same,R CLint,[6],<7 / <7 / <7 μL/min/mg
same,Microsome binding,[7],71.7 % bound
same,R plasma protein binding,[8],97.0 % bound
same,EC50,R10C1B,120 nM
same,H CLint,[9],<7 / <7 / <7 μL/min/mg
same,human half-life,[10],~ 100 hours
same,EC50,R2B,74 nM
same,H plasma protein binding,[11],99.9 % bound
"CCOC(=O)c1[nH]c(C)c(Cc2ccc(OCC)cc2)c1C [Compound 3, Ethyl 4-(4-ethoxybenzyl)-3,5-dimethyl-1H-pyrrole-2-carboxylate]",EC50,Pf3D7 cells; [16],230 nM
same,EC50,Pf3D7 cells; read-out: EC50 Pf3D7 cells,250 nM
"CCOC(=O)c1[nH]c(C)c(Cc2ccc(C(F)(F)F)cc2)c1C [Compound 4, Ethyl 3,5-dimethyl-4-(4-(trifluoromethyl)benzyl)-1H-pyrrole-2-carboxylate]",EC50,Pf3D7 cells; [16],61 nM
same,EC50,Pf3D7 cells; read-out: EC50 Pf3D7 cells,71 nM
"CCNC(=O)c1[nH]c(C)c(Cc2ccc(C(F)(F)F)nc2)c1C [Compound 16, N-Ethyl-3,5-dimethyl-4-((6-(trifluoromethyl)pyridin-3-yl)methyl)-1H-pyrrole-2-carboxamide]",IC50,PfDHODH; potency on PfDHODH,< 50 nM
same,EC50,Pf3D7 cells; [17],< 50 nM
"Cc1[nH]c(C(=O)NC2CC2)c(C)c1Cc1ccc(C(F)(F)F)nc1 [Compound 18, N-Cyclopropyl-3,5-dimethyl-4-((6-(trifluoromethyl)pyridin-3-yl)methyl)-1H-pyrrole-2-carboxamide]",EC50,Pf3D7 cells; [17],< 50 nM
"Cc1[nH]c(C(=O)NC2CCC2)c(C)c1Cc1ccc(C(F)(F)F)nc1 [Compound 19, N-Cyclobutyl-3,5-dimethyl-4-((6-(trifluoromethyl)pyridin-3-yl)methyl)-1H-pyrrole-2-carboxamide]",IC50,PfDHODH; IC50 PfDHODH,72 nM and 42 nM
"Cc1[nH]c(C(=O)NC2CCC2)c(C)c1Cc1ccc(C(F)(F)F)cn1 [Compound 25, N-Cyclobutyl-3,5-dimethyl-4-((5-(trifluoromethyl)pyridin-2-yl)methyl)-1H-pyrrole-2-carboxamide]",EC50,Pf3D7 cells; [16],470 nM
same,EC50,Pf3D7 cells; read-out: EC50 Pf3D7 cells,680 nM
Cc1c(Cc2ccc(C(F)(F)F)nc2)c[nH]c1C(=O)NC1CC1 [Compound 37],Human Ion Channel activity hERG,hERG,>33 µM
same,M plasma protein binding,Plasma protein binding [12],88 % bound and 88.9 % bound
same,Microsome binding,Microsome binding,29.9 % bound
same,Human Ion Channel activity KV1.5 K+,KV1.5 K+,>11 µM
same,Albumax binding,Albumax medium binding,51.8 % bound
same,R plasma protein binding,Plasma protein binding [13],88.2 % bound
same,H plasma protein binding,Plasma protein binding [14],90 % bound
same,clearance at 24 h,in vivo,26.1 mL/min/kg
same,AUC(0-t),[15]; 10 mg/kg,680 ng·h/mL
same,AUC(0-t),[15]; 50 mg/kg,8600 ng·h/mL
same,Cmax,[15]; 50 mg/kg,2520 ng/mL
"Cc1c(Cc2ccc(C(F)(F)F)nc2)c[nH]c1C(=O)NCC(F)(F)F [Compound 39, 3-Methyl-N-(2,2,2-trifluoroethyl)-4-((6-(trifluoromethyl)pyridin-3-yl)methyl)-1H-pyrrole-2-carboxamide]",EC50,Pf3D7 cells; [16],44 nM
same,EC50,Pf3D7 cells; read-out: EC50 Pf3D7 cells,59 nM
"Cc1c(Cc2ccc(C(F)(F)F)cc2F)c[nH]c1C(=O)NC1CC1 [Compound 60, N-Cyclopropyl-4-(2-fluoro-4-(trifluoromethyl)benzyl)-3-methyl-1H-pyrrole-2-carboxamide]",EC50,Pf3D7 cells; [17],< 30 nM
"Cc1c(Cc2ccc(C(F)(F)F)cc2Cl)c[nH]c1C(=O)NC1CC1 [Compound 66, 4-(2-chloro-4-(trifluoromethyl)benzyl)-N-cyclopropyl-3-methyl-1H-pyrrole-2-carboxamide]",EC50,Pf3D7 cells; [17],< 30 nM
